What was measured:
Type in all cases: cell-based, human
[1] = system: Melanoma M1585 cells; test: MTT proliferation assay, M1585 melanoma; settings: Catalase 3000 U/ml; 10% FBS; 48 hours; mean±SE vs control
Procedure: (§1) Measurement of Proliferation in Cell Cultures. […] This assay empirically distinguishes between dead and living cells.
(§2) Cell Culture Treatments. The effect of antioxidant treatments on proliferation of malignant cell lines was studied in cultures stimulated with 10% FBS. Cell numbers were quantitated by the MTT assay 24-72 hours later. In some experiments, antioxidants were added immediately after cells were plated. In other experiments, cells were plated and allowed to grow for 24 hours before fresh media with antioxidants was added, and cell numbers were studied by the MTT assay 48 hours later.
(§3) Cells stimulated with 10% FBS were plated at a density of 50,000 cells per well. DMSO and antioxidants were added to cell wells at the indicated concentrations. […] Each value represents a mean of at least 4 experiments.

[2] = system: LNCaP.FGC prostate adenocarcinoma cells; test: MTT proliferation assay, LNCaP.FGC prostate adenocarcinoma; settings: Catalase 3000 U/ml; 10% FBS; 48 hours; mean±SE vs control
Procedure: as §1, §2, §3

[3] = system: NF-κB; test: EMSA of constitutive nuclear NF-κB DNA binding, M1619; settings: 24 hours, catalase 3,000 U/ml, NAC 20 mM, Ebselen 25 μM, dicumarol 250 μM
From the text: Electrophoretic Mobility Shift Assays (EMSAs). […] J. Respir.

[4] = system: p65 component of NF-κB; test: Immunohistochemical localization of p65 in M1619 cells; settings: 24 hours, catalase 3,000 U/ml, apocynin 150 μg/ml, dicumarol 250 μM
Procedure: The effect of antioxidants on nuclear activation of NF-κB was studied by incubating near confluent (70%) cell cultures with antioxidant treatments for 1-48 hours. Nuclear protein was harvested, and EMSAs were performed using DNA consensus binding sequences, or nuclear translocation of the p65 component of NF-κB was studied by immunoperoxidase staining, as outlined below.
Immunohistochemical Localization of NF-κB. Cells grown on sterile coverslips and treated with catalase 3,000 U/ml, apocynin 150 μg/ml, or DPBS or DMSO vehicles for 24 h were fixed for 20 min on ice with 4% paraformaldehyde in DPBS with protease inhibitors, PI [Sigma protease inhibitor cocktail, 10 μl/ml, containing 4-(2-aminoethyl)benzensulfonyl fluoride (AEBSF), pepstatin A, trans-epoxysuccinyl-L-leucylamindo-(guanidino)butane (E-64), bestatin, leupeptin and aprotinin]. Cells were permeabilized by treating for 2 min with 0.1% NP-40 in DPBS/PI, washed once with cold DPBS and fixed as before for 10 min. Coverslips were incubated in 3% hydrogen peroxide for 30 min to suppress any remaining peroxidase, and washed three times in cold DPBS. The permeabilized and fixed cells were blocked for 2 hours with 2% BSA in DPBS on ice and incubated overnight at 4° C. with 1 μg/ml of anti-p65 antibody (Santa Cruz) diluted in 0.1% BSA/DPBS. Unbound anti-p65 was washed away with 2% BSA/DPBS and bound antibody was stained by incubation with biotinylated goat anti-rabbit immunoglobulin diluted 1:50 in 0.1% BSA/DPBS for 45 min on ice. Excess secondary antibody was washed away by 3 washes with 2% BSA/DPBS on ice. After washing, the cells were incubated with a streptavidin-biotin-peroxidase complex at room temperature for 1 hr, washed again, and incubated in 0.03% wt/vol 3-3′diaminobenzidine with 0.003% vol/vol hydrogen peroxide until a brown reaction product could be seen. Cells were then counterstained with eosin and mounted on glass slides before viewing under light microscopy. […]

[5] = system: M1619 cells; test: Apoptosis by TdT fluorescein end-labeling (FragEL); settings: 3000 U/ml catalase for 24 hours; vs DNase-treated positive control
Procedure: Measurement of Cytotoxicity and Apoptosis. To assess for cytotoxicity, near confluent cells cultured in 24 well plates were exposed to antioxidants or withdrawn from serum for 24 hours. Medium was removed, and replaced with Dulbecco=s phosphate buffered saline (DPBS) containing 0.1% trypan blue. […] To assess for apoptosis, cells grown on glass slides were treated with antioxidants for 24 hours. Apoptosis was studied by terminal deoxynucleotidyl transferase (TdT) dependent 3′BOH fluorescein end-labeling of DNA fragments, using a Fluorescein-FragEL™ DNA fragmentation detection kit (Oncogene Research Products, Cambridge, Mass.). DNase-treated fixed cells were used as a positive control.
Apoptosis was studied by terminal deoxynucleotidyl transferase (TdT) dependent 3′BOH fluorescein end-labeling of DNA fragments, using a Fluorescein-FragE™ DNA fragmentation detection kit (Oncogene Research Products).

[6] = system: Adeno-squamous lung carcinoma NCI-H596 cells; test: MTT proliferation assay, NCI-H596 lung carcinoma; settings: Catalase 3000 U/ml; 10% FBS; 48 hours; mean±SE vs control
Procedure: as §1, §2, §3

[7] = system: M1619 cells; test: DNA cell cycle analysis by flow cytometry; settings: 3,000 U/ml catalase, 24 hours
Procedure: DNA Cell Cycle Measurements. To study the effect of antioxidant treatments on the DNA cell cycle, cells were grown to near confluence in 25 cm^2 plastic flasks and treated for 24 hours. Cells were typsinized, washed twice in cold DPBS with 1 mM EDTA and 1% bovine serum albumin (BSA), fixed 30 min in ice-cold 70% ethanol, and stained by incubation for 30 min at 37° C. in a 10 μg/ml solution of propidium iodide in DPBS and 1 mg/ml RNase A. DNA cell cycle measurements were made using a FACStar^PLUS Flow Cytometer (Becton-Dickenson, San Jose, Calif.).
Near confluent monolayers of M1619 cells were incubated in RPMI 1640 and 10% FBS in the presence or absence of 3,000 U/ml catalase. After 24 hours, cells were harvested, ethanol-fixed, permeabilized with proteinase K, stained with propidium iodide and subjected to DNA cell cycle analysis. Whereas a large fraction (30.2%) of untreated cells (FIG. 6A) were tetraploid, only 12.8% of catalase-treated cells (FIG. 6B) were tetraploid. […] G2-M was hidden by tetraploid G0-G1 or by debris and could not be analyzed.

Catalase
Percent Growth Inhibition [1]: 80 ± 1 | Percent Growth Inhibition [2]: 43 ± 7 | constitutive NF-κB DNA binding activity in nuclear protein [3]: substantially reduced | anti-p65 staining in nuclei (nuclear translocation of NF-κB) [4]: little staining in nuclei | Induction of apoptosis [5]: did not induce apoptosis | Percent Growth Inhibition [6]: 69 ± 4 | fraction of cells tetraploid ([7]; untreated 30.2%): 12.8% | total percentage of cells in S-phase ([7]; untreated 41.2%): 56.7%

— patent US20070142462A1, “Method of Treating Cancer” (The University of Utah, priority 2000, published 2007)
